Data taken from the supplement of paper PMC13207355.
Counter-ions that a name gives are not always drawn.

Legend:
Settings in all cases: exposure time: 72 h
E21 [1] = patient-derived glioblastoma stem cells of mesenchymal subtype; test: phenotypic distance (Euclidean, principal components) from DMSO controls (arbitrary units); higher = stronger morphological change
E31 [2] = patient-derived glioblastoma stem cells of proneural subtype; test: as above
E13 [3] = patient-derived glioblastoma stem cells of classical subtype; test: as above
E57 [4] = patient-derived glioblastoma stem cells of mesenchymal subtype; test: as above
E28 [5] = patient-derived glioblastoma stem cells of classical subtype; test: as above
E34 [6] = patient-derived glioblastoma stem cells of proneural subtype; test: as above
FT3469 [7] = normal neural stem cell line; test: as above
E21 [8] = test: surviving fraction (nuclei count normalised to DMSO); higher = more cells surviving (less toxic)
E31 [9] = test: as above
E13 [10] = test: as above
E57 [11] = test: as above
E28 [12] = test: as above
E34 [13] = test: as above
FT3469 [14] = test: as above
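For phenotypic distance (Euclidean, principal components) from DMSO controls in this document: cell Painting imaging in 384-well plates, CellProfiler features reduced to at least 20 principal components, Euclidean distance versus same-plate DMSO vehicle wells (0.1% v/v), median over six images per well.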
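For surviving fraction (nuclei count normalised to DMSO) in this document: nuclei counted by high-content imaging of Hoechst-stained cells in laminin-coated 384-well plates, relative to 0.1% DMSO vehicle wells, with staurosporine as cell-death control.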

Q: How did the phenotypic distance (E21 [1]; 4.1 nM) turn out when `N=c1ccn2c(n1)O[C@H]1[C@H](O)[C@@H](CO)O[C@H]12` [Ancitabine hydrochloride] was run?
A: 1.35

Q: What about the phenotypic distance (E21 [1]; 12.3 nM) of the same compound?
A: 1.44

Q: And the phenotypic distance (E21 [1]; 37 nM)?
A: 1.87

Q: What about the phenotypic distance (E21 [1]; 111.1 nM) of the same compound?
A: 2.14

Q: What about the phenotypic distance (E21 [1]; 333.3 nM) of the same compound?
A: 3.95

Q: What about the phenotypic distance (E21 [1]; 1000 nM) of the same compound?
A: 5.57

Q: And the phenotypic distance (E21 [1]; 3000 nM)?
A: 6.36

Q: And the phenotypic distance (E31 [2]; 4.1 nM)?
A: 1.4

Q: What about the phenotypic distance (E31 [2]; 12.3 nM) of the same compound?
A: 1.46

Q: What about the phenotypic distance (E31 [2]; 37 nM) of the same compound?
A: 1.63

Q: What about the phenotypic distance (E31 [2]; 111.1 nM) of the same compound?
A: 2.22

Q: What about the phenotypic distance (E31 [2]; 333.3 nM) of the same compound?
A: 2.92

Q: And the phenotypic distance (E31 [2]; 1000 nM)?
A: 3.39

Q: And the phenotypic distance (E31 [2]; 3000 nM)?
A: 3.87

Q: What about the phenotypic distance (E13 [3]; 4.1 nM) of the same compound?
A: 1.7

Q: And the phenotypic distance (E13 [3]; 12.3 nM)?
A: 1.23

Q: And the phenotypic distance (E13 [3]; 37 nM)?
A: 1.32

Q: And the phenotypic distance (E13 [3]; 111.1 nM)?
A: 1.29

Q: What about the phenotypic distance (E13 [3]; 333.3 nM) of the same compound?
A: 2.15

Q: What about the phenotypic distance (E13 [3]; 1000 nM) of the same compound?
A: 3.33

Q: And the phenotypic distance (E13 [3]; 3000 nM)?
A: 5.43

Q: And the phenotypic distance (E57 [4]; 4.1 nM)?
A: 3.74

Q: What about the phenotypic distance (E57 [4]; 12.3 nM) of the same compound?
A: 1.61

Q: What about the phenotypic distance (E57 [4]; 37 nM) of the same compound?
A: 2.27

Q: And the phenotypic distance (E57 [4]; 111.1 nM)?
A: 3.75

Q: What about the phenotypic distance (E57 [4]; 333.3 nM) of the same compound?
A: 6.65

Q: What about the phenotypic distance (E57 [4]; 1000 nM) of the same compound?
A: 7.84

Q: And the phenotypic distance (E57 [4]; 3000 nM)?
A: 8.89

Q: What about the phenotypic distance (E28 [5]; 4.1 nM) of the same compound?
A: 2.22

Q: What about the phenotypic distance (E28 [5]; 12.3 nM) of the same compound?
A: 2

Q: And the phenotypic distance (E28 [5]; 37 nM)?
A: 1.29

Q: What about the phenotypic distance (E28 [5]; 111.1 nM) of the same compound?
A: 1.66

Q: And the phenotypic distance (E28 [5]; 333.3 nM)?
A: 1.88

Q: And the phenotypic distance (E28 [5]; 1000 nM)?
A: 2.56

Q: And the phenotypic distance (E28 [5]; 3000 nM)?
A: 2.87

Q: What about the phenotypic distance (E34 [6]; 4.1 nM) of the same compound?
A: 1.44

Q: What about the phenotypic distance (E34 [6]; 12.3 nM) of the same compound?
A: 0.954

Q: And the phenotypic distance (E34 [6]; 37 nM)?
A: 1.24

Q: And the phenotypic distance (E34 [6]; 111.1 nM)?
A: 1.69

Q: And the phenotypic distance (E34 [6]; 333.3 nM)?
A: 2.92

Q: What about the phenotypic distance (E34 [6]; 1000 nM) of the same compound?
A: 3.78

Q: And the phenotypic distance (E34 [6]; 3000 nM)?
A: 5.02

Q: And the phenotypic distance (FT3469 [7]; 4.1 nM)?
A: 1.34

Q: And the phenotypic distance (FT3469 [7]; 12.3 nM)?
A: 0.713

Q: And the phenotypic distance (FT3469 [7]; 37 nM)?
A: 1.46

Q: And the phenotypic distance (FT3469 [7]; 111.1 nM)?
A: 1.24

Q: What about the phenotypic distance (FT3469 [7]; 333.3 nM) of the same compound?
A: 3.06

Q: What about the phenotypic distance (FT3469 [7]; 1000 nM) of the same compound?
A: 2.47

Q: And the phenotypic distance (FT3469 [7]; 3000 nM)?
A: 2.06

Q: What about the surviving fraction (E21 [8]; 4.1 nM) of the same compound?
A: 0.896

Q: And the surviving fraction (E21 [8]; 12.3 nM)?
A: 0.889

Q: What about the surviving fraction (E21 [8]; 37 nM) of the same compound?
A: 0.909

Q: What about the surviving fraction (E21 [8]; 111.1 nM) of the same compound?
A: 0.832

Q: And the surviving fraction (E21 [8]; 333.3 nM)?
A: 0.693

Q: And the surviving fraction (E21 [8]; 1000 nM)?
A: 0.636

Q: What about the surviving fraction (E21 [8]; 3000 nM) of the same compound?
A: 0.422

Q: What about the surviving fraction (E31 [9]; 4.1 nM) of the same compound?
A: 0.978

Q: What about the surviving fraction (E31 [9]; 12.3 nM) of the same compound?
A: 0.749

Q: And the surviving fraction (E31 [9]; 37 nM)?
A: 0.721

Q: And the surviving fraction (E31 [9]; 111.1 nM)?
A: 0.594

Q: And the surviving fraction (E31 [9]; 333.3 nM)?
A: 0.669

Q: What about the surviving fraction (E31 [9]; 1000 nM) of the same compound?
A: 0.394

Q: What about the surviving fraction (E31 [9]; 3000 nM) of the same compound?
A: 0.176

Q: What about the surviving fraction (E13 [10]; 4.1 nM) of the same compound?
A: 0.857

Q: And the surviving fraction (E13 [10]; 12.3 nM)?
A: 0.724

Q: And the surviving fraction (E13 [10]; 37 nM)?
A: 0.884

Q: What about the surviving fraction (E13 [10]; 111.1 nM) of the same compound?
A: 0.812

Q: What about the surviving fraction (E13 [10]; 333.3 nM) of the same compound?
A: 0.716

Q: What about the surviving fraction (E13 [10]; 1000 nM) of the same compound?
A: 0.67

Q: And the surviving fraction (E13 [10]; 3000 nM)?
A: 0.49

Q: What about the surviving fraction (E57 [11]; 4.1 nM) of the same compound?
A: 0.931

Q: And the surviving fraction (E57 [11]; 12.3 nM)?
A: 0.805

Q: What about the surviving fraction (E57 [11]; 37 nM) of the same compound?
A: 0.73

Q: What about the surviving fraction (E57 [11]; 111.1 nM) of the same compound?
A: 0.655

Q: What about the surviving fraction (E57 [11]; 333.3 nM) of the same compound?
A: 0.409

Q: What about the surviving fraction (E57 [11]; 1000 nM) of the same compound?
A: 0.321

Q: What about the surviving fraction (E57 [11]; 3000 nM) of the same compound?
A: 0.212

Q: And the surviving fraction (E28 [12]; 4.1 nM)?
A: 0.837

Q: And the surviving fraction (E28 [12]; 12.3 nM)?
A: 1.18

Q: And the surviving fraction (E28 [12]; 37 nM)?
A: 0.826

Q: And the surviving fraction (E28 [12]; 111.1 nM)?
A: 0.886

Q: And the surviving fraction (E28 [12]; 333.3 nM)?
A: 0.687

Q: What about the surviving fraction (E28 [12]; 1000 nM) of the same compound?
A: 0.653

Q: What about the surviving fraction (E28 [12]; 3000 nM) of the same compound?
A: 0.482

Q: What about the surviving fraction (E34 [13]; 4.1 nM) of the same compound?
A: 0.976

Q: What about the surviving fraction (E34 [13]; 12.3 nM) of the same compound?
A: 1.09

Q: And the surviving fraction (E34 [13]; 37 nM)?
A: 0.963

Q: What about the surviving fraction (E34 [13]; 111.1 nM) of the same compound?
A: 0.86

Q: What about the surviving fraction (E34 [13]; 333.3 nM) of the same compound?
A: 0.71

Q: And the surviving fraction (E34 [13]; 1000 nM)?
A: 0.689

Q: And the surviving fraction (E34 [13]; 3000 nM)?
A: 0.593

Q: And the surviving fraction (FT3469 [14]; 4.1 nM)?
A: 0.699

Q: What about the surviving fraction (FT3469 [14]; 12.3 nM) of the same compound?
A: 0.86

Q: And the surviving fraction (FT3469 [14]; 37 nM)?
A: 0.964

Q: And the surviving fraction (FT3469 [14]; 111.1 nM)?
A: 0.691

Q: And the surviving fraction (FT3469 [14]; 333.3 nM)?
A: 0.668

Q: And the surviving fraction (FT3469 [14]; 1000 nM)?
A: 0.679

Q: What about the surviving fraction (FT3469 [14]; 3000 nM) of the same compound?
A: 0.682
